PubChem BioAssay AID351 (ChemBlock, 2006)
Square brackets hold non-standard residues; d marks the D form. Peptide text beside a SMILES is read from it. * marks the point of attachment. ξ: configuration not given here. X1 = COC1=CC(=O)N(C(=O)C(O*)C(C)C)C1Cc1ccccc1; ξNMe2Val = CC(C)C(C(=O)*)N(C)C; NMeV = CN[CH](C(=O)O)C(C)C

Test system: sea urchin embryo, cleavage alteration, microscopy
Experiment: sea urchin embryo cleavage alteration, tubulin destabilizer project, whole organism, microscopy (AID 351)

SMILES | threshold concentration [nM]
COc1cc2c(c(OC)c1OC)-c1ccc(OC)c(=O)cc1C(NC(C)=O)CC2 (stereo not drawn) | 50000
O=C1c2cccc(O)c2C(=O)c2c(O)cc(CO)cc21 | 20000
COc1cccc(NC(=O)C(=O)c2cn(Cc3ccc(Cl)cc3)c3ccccc23)c1 | 4000
CCOc1ccc(Nc2nc(-c3c(C)nc4cc(C)ccn34)cs2)cc1 | 200
COC(=O)c1[nH]c2ccccc2c1NCc1ccncc1 | 500
COc1ccc(NC(=O)C(=O)c2c[nH]c3ccccc23)cc1 | 1
c1ccc(-c2nnc(Nc3ccc4c(c3)OCCO4)o2)c(NCc2ccns2)c1 | 2000
COC1=CC(=O)N(C(=O)C(OC(=O)C2CCCN2C(=O)C2CCCN2C(=O)C(C(C)C)N(C)C(=O)C(NC(=O)C(C(C)C)N(C)C)C(C)C)C(C)C)C1Cc1ccccc1 (stereo not drawn) (ξNMe2Val-V[NMeV]PP-X1; configuration not given here) | 5
Nc1csnc1-c1nnc(Nc2ccc(Cl)cc2)o1 | 200
Cc1nc2sccn2c1-c1csc(Nc2ccccc2Cl)n1 | 200
Nc1ccccc1-c1nnc(Nc2ccc3c(c2)OCCO3)o1 | 1
c1ccc(-c2nnc(Nc3ccc4c(c3)OCCO4)o2)c(NCc2ccncc2)c1 | 0.5
Cc1ccc(Nc2nc(-c3c(C)nc4sccn34)cs2)cc1 | 5
COC(=O)Nc1nc2ccc(C(=O)c3cccs3)cc2[nH]1 | 5
Nc1c(C(=O)c2ccccc2)sc2nc3c(cc12)CCCC3 | 20
CCC1=CCN2CCC34c5cc(C6(C(=O)OC)CC7CN(CCc8c6[nH]c6ccccc86)CC(O)(CC)C7)c(OC)cc5N(C)C3C(O)(C(=O)OC)C(OC(C)=O)C1C24 (stereo not drawn) | 200
Nc1cn[nH]c1-c1nc(-c2cccc(F)c2)n[nH]1 | 500
O=C(Nc1ccc2c(c1)OCO2)C(=O)c1cn(Cc2ccc(Cl)cc2)c2ccccc12 | 50
